We go through six compounds from article PMC6952366 (Scientific Reports, 2020).

Values joined by “and” are separate entries in the source; they are usually repeats but may differ in a detail not shown here. Identical values can stand only once. Like-named read-outs stand apart in the source and are kept apart here.

Series [1] concerns the target T1, Shaker K+ channel (Drosophila melanogaster, UniProt P08510, DEL6-46).
T1 construct: expressed in transfected cells; host or cells: Xenopus laevis oocytes injected with in vitro transcribed cRNA (cDNA clone from the Bezanilla laboratory)
The series is described as follows: cell-based. The series is classed as cell-based, D. melanogaster. To be noted: for δ (fractional distance through the membrane electrical field): Woodhull fit of IC50 vs voltage curves. As to the method: K^+ currents were measured in Xenopus oocytes expressing the commonly studied voltage-gated K^+ channel Shaker from D. melanogaster. In order to determine the relative blocking capacity, each drug was applied to the same oocyte at increasing concentrations ranging from 1 to 10,000 μM. Then, the relative current was determined as the ratio between the maximal amplitude of the K^+ current in the absence and in the presence of each drug. […] The Hill equation (Eq. 1) was fitted to the dose-response curves and used to calculate the IC50 for each drug at pH 7.4.
A sample of cDNA clone encoding for Shaker voltage-gated K^+ channel from D. melanogaster with inactivation removed[51] was generously provided by the laboratory of Prof. Francisco Bezanilla at The University of Chicago. The DNA was amplified, linearized with Not I enzyme (New England Biolabs, Inc., Ipswich, MA, USA) and transcribed in vitro using the T7 promoter mMESSAGE cRNA kit (Ambion, Austin, Tex., USA).
Shaker channel was heterologously expressed in Xenopus laevis oocytes. Only mature Xenopus laevis frogs (Aquanimals SA de CV, Queretaro, Mexico) were used as oocytes suppliers. A volume of 1−3 mL from the ovary lobes was extracted via survival surgery under anesthesia. All methods involving live animals were performed in accordance with relevant guidelines and regulations and with the approval of the Comité Institucional del Cuidado y Uso de Animales en el Laboratorio (CICUAL-CUCEI-UDG). Subsequently, oocytes were isolated with the treatment of collagenase type II (Worthington Biochemical Corp., NJ, USA) under mechanical agitation. After the isolation with collagenase, each oocyte was injected with 15–25 ng of RNA encoding for the Shaker ion channel and incubated for 8–12 h at 17 °C in a Standard Oocytes Saline (SOS) solution containing (in mM): 100 NaCl, 1 MgCl2, 10 HEPES, 2 KCl and 1.8 CaCl2 with 50 μg/mL gentamycin at pH 7.5.
All chemical compounds for this study were acquired from Sigma-Aldrich (Sigma-Aldrich Co., St. Louis, MO, USA) and Chem-Impex International (Chem-Impex International, Inc. Wood Dael, IL, USA) unless otherwise indicated. Electrophysiology measurements were conducted using the methodology of cut-open oocyte voltage clamp (COVC)[52]. For COVC procedures, the internal recording solution contained (in mM): 120 KOH, 2 EGTA, and 20 HEPES. The external recording solution was composed (in mM) by: 12 KOH, 2 Ca(OH)2, 105 NMDG (N-methyl-D-glucamine)-methylsufonate (MES), and 20 mM HEPES. For measurements carried out at pH of 6.8 and 7.4, the pH of both solutions was adjusted with MES. For measurements carried out at pH = 9.1, HEPES was replaced by 2-(cyclohexylamino)ethanesulfonic acid (CHES).
K^+ currents were recorded in the same oocyte, first in absence (IK) and then in presence of each drug (II). IK was elicited by depolarizing the oocyte membrane with a voltage protocol that consisted in steps of 50 ms from −100 to 50 mV in increments of 10 mV. […] The integrity and stability of each oocyte were continuously monitored throughout the experiment.
Ionic currents were amplified and digitized with the Oocyte Clamp Amplifier CA-1A (Dagan Corporation, Minneapolis, MN, USA) and the USB-1604-HS-2AO Multifunction Card (Measurement Computing, Norton, MA, USA), respectively, and controlled with the GpatchMC64 program (Department of Anesthesiology, UCLA, Los Angeles, CA, USA) via a PC. Data were sampled at 100 kHz and filtered at 10 kHz. All the experiments were performed at room temperature (21–23 °C).
Ion currents recordings were analyzed with Analysis (Department of Anesthesiology, UCLA, Los Angeles, CA, USA) and OriginPro 8 (OriginLab Corporation, Northampton, MA, USA.) programs.
Mean values of data ± standard deviation (s.d.) are given or plotted and the number of experiments is denoted by n. The 95% of confidence interval (IC95) is denoted as [Upper limit-Lower limit]; where Upper limit = 10^(logIC50+s.d) and Lower limit = 10^(logIC50−s.d) .

Series [2] in a line: Octanol-water partition coefficient (logD) at pH 7.4, modified shake flask method. The format is physicochemical. The note with it: pH 7.4, 4 replicates. Here is the method:
The octanol-water partition coefficient (logD) at pH 7.4 was determined using a modified version of the shake flask method. Briefly, PBS (900 µL), 1-octanol (900 µL) and a 10 mg/mL aqueous solution of each compound (2 µL) were added to a 2 mL HPLC vial. The compounds were partitioned between the layers via vortexing and centrifuged at 1,000 g for 1 min to allow for phase separation. A portion (10 µL) was taken from each layer (autoinjector was set up to draw volume at two different heights) and analyzed by HPLC. The relative concentration in each phase was determined by integrating the area under each peak and comparing the ratio of the areas from the octanol and aqueous layers. A calibration curve was performed to ensure that the concentrations detected were within the linear range of the detector. This procedure was repeated 4 times for each compound.

The nature of series [3]: pKa determination by acid titration. The series is classed as physicochemical. The note with it: acid titration in water, Gran plot, 4 replicates. As to the method: The pKa of each compound was measured by acid titration. […] This procedure was repeated 4 times for each compound.
For series [4] the following is noted: cited from earlier work.
The mark [5] stands for this setting: 0 mV, pH 6.8, Hill fit, read-out: IC50.
Where [6] appears, read: 0 mV, pH 7.4, Hill fit, read-out: IC50.
The mark [7] stands for this setting: 0 mV, pH 9.1, Hill fit, read-out: IC50.
The mark [8] stands for this setting: 40 mV, pH 7.4, Hill equation fit, read-out: IC50.
[9] abbreviates: 1-octanol/PBS, pH 7.4, octanol/water (PBS), read-out: logD.
The mark [10] stands for this setting: IC50, 40 mV, pH 7.4, Hill equation fit.
Where [11] appears, read: IC50 at V = 0 mV (Woodhull parameter), fit of IC50 vs voltage curves (10 to 50 mV) with Woodhull model, mean ± SD.
The mark [12] stands for this setting: IC50 increase with voltage (from lowest to highest voltage), over the voltage values studied, Fig. 4 shows 10 to 50 mV.
[13] abbreviates: fit of IC50 vs voltage curves (10 to 50 mV) with Woodhull model, mean ± SD, read-out: IC50 at V = 0 mV (Woodhull parameter).
The mark [14] stands for this setting: over the voltage values studied, Fig. 4 shows 10 to 50 mV, read-out: IC50 increase with voltage (from lowest to highest voltage).

T1 sequence (P08510 other isoform, or with tags, fused parts or gaps DEL6-46): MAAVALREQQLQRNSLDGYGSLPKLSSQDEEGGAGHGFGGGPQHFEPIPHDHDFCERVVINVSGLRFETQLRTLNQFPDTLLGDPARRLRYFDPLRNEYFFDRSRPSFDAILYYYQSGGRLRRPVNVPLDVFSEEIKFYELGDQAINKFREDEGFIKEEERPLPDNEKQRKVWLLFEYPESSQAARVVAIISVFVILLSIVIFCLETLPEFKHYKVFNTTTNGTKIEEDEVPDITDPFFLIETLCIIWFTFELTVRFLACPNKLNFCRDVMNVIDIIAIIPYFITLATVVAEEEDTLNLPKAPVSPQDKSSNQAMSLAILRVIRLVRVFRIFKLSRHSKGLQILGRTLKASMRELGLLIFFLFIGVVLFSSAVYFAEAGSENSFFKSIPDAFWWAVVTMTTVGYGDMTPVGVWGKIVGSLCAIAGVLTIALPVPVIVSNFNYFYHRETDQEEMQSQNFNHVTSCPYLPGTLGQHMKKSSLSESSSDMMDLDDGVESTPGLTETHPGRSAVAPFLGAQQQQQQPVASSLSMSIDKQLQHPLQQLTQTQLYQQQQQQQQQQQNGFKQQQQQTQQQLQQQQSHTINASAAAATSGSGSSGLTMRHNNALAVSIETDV

Consider `Nc1ccnc(C(F)(F)F)c1` [2CF34AP, 2-trifluoromethyl-4-aminopyridine], for which the IC50 in series [1] (setting [5]) came out at 10400 µM; in series [1] (setting [6]) it was 11900 µM; in series [1] (setting [7]), 18200 µM; in series [1] (setting [8]), 12800 µM. The “blocking of the channel” value in series [1] (at 10 mM, pH 7.4, 40 mV) is listed as ~ 50%. The logD in series [2] (setting [9]) was found to be 1.48; in series [2] (octanol/water (PBS)), 0.906 ± 0.006. Besides, the pKa was 7.0 ± 0.4 in series [3] and < 8 in series [3] (water, read-out: pKa).
For the compound `Nc1ccncc1C(F)(F)F` [3CF34AP, 3-trifluoromethyl-4-aminopyridine], the IC50 in series [1] (IC50, 0 mV, pH 6.8, Hill fit) is 249 µM; in series [1] (IC50, 0 mV, pH 7.4, Hill fit), 690 µM; in series [1] (IC50, 0 mV, pH 9.1, Hill fit), 2190 µM; in series [1] (setting [10]), 1060 µM; in series [1] (setting [11]), 516 ± 51 µM; in series [1] (setting [12]), 690 to 1150 µM. In series [1], the “δ (fractional distance through the membrane electrical field)” value came out at 0.46 ± 0.10. For the same compound, the logD in series [2] (setting [9]) amounted to 0.91; in series [2] (octanol/water (PBS)), 1.484 ± 0.009. The pKa in series [3] was 7.17 ± 0.04; in series [3] (water, read-out: pKa), < 8.
Regarding `Nc1ccncc1F` [3F4AP, 3-fluoro-4-aminopyridine, reference compound], the IC50 in series [1] (setting [5]) was 82 µM; in series [1] (setting [6]) it was 160 µM; in series [1] (setting [7]) it was 185 µM; in series [1] (setting [8]), 244 µM; in series [1] (setting [13]), 122 ± 4 µM; in series [1] (setting [14]), 160 to 304 µM. In addition, the “δ (fractional distance through the membrane electrical field)” value in series [1] was 0.46 ± 0.10. Besides, the “potency relative to 4AP” value in series [1] (pH 7.4, 40 mV) is “comparable to 4AP”. The logD in series [2] (setting [9]) stood at 0.41; in series [2] (octanol/water (PBS)), 0.414 ± 0.002. In addition, the pKa in series [4] was 7.6; in series [3] it was 7.65 ± 0.15; in series [3] (water, read-out: pKa), < 8.
`Cc1cnccc1N` [3Me4AP, 3-methyl-4-aminopyridine]: the IC50 in series [1] (IC50, 0 mV, pH 6.8, Hill fit) was 66 µM; in series [1] (IC50, 0 mV, pH 7.4, Hill fit), 39 µM; in series [1] (IC50, 0 mV, pH 9.1, Hill fit), 15 µM; in series [1] (setting [10]) it was 40 µM; in series [1] (setting [11]), 21 ± 1 µM; in series [1] (setting [12]) it was 37 to 50 µM. Besides, the “δ (fractional distance through the membrane electrical field)” value in series [1] is reported as 0.43 ± 0.10. In series [2] (octanol/water (PBS)), the logD is −1.23 and −1.232 ± 0.008. In addition, the pKa in series [3] is 9.82 ± 0.06; in series [3] (water, read-out: pKa) it was > 9.
Take `COc1cnccc1N` [3MeO4AP, 3-methoxy-4-aminopyridine]: the IC50 in series [1] (setting [5]) was 357 µM; in series [1] (setting [6]), 355 µM; in series [1] (setting [7]), 492 µM; in series [1] (setting [8]), 807 µM; in series [1] (setting [13]), 329 ± 17 µM; in series [1] (setting [14]), 310 to 992 µM. Moreover, the “δ (fractional distance through the membrane electrical field)” value in series [1] is 0.56 ± 0.02. In addition, the logD in series [2] (setting [9]) is -0.76 ± 0.03. Further, the pKa in series [3] was 9.18 ± 0.02; in series [3] (water, read-out: pKa), > 9.
In the case of `Nc1ccncc1` [4AP, 4-aminopyridine, reference compound], in series [1], the “δ (fractional distance through the membrane electrical field)” value was 0.41 ± 0.08. The log distribution coefficient (logD) in series [2] (octanol/water (PBS)) was −1.48 and −1.478 ± 0.014. The pKa in series [3] is 9.58 ± 0.07; in series [3] (water, read-out: pKa) it was > 9.

As a reminder, the IC50 is the concentration that inhibits the measured activity by half. As usually defined, the logD is the decadic logarithm of the distribution of all forms, ionised or not, between an organic phase and buffer at a given pH. Broadly, the pKa is the negative logarithm of the acid dissociation constant.
